In the NIST ThermoML archive (doi:10.1021/je900967j):

Assay: xn = mol fraction of the nth substance listed
Conditions: 298.15 K; 101 kPa; Liquid; Dispersion; x1 = 0

Row | binary diffusion coefficient [m2/s] | SMILES
1 | 8.3e-10 | OCc1ccccc1 [benzenemethanol] + O
2 | 5.32e-10 | OCCCCCc1ccccc1 [1-pentanol, 5-phenyl-] + O
3 | 7.22e-10 | OCCCc1ccccc1 [3-phenyl-1-propanol] + O
4 | 6.64e-10 | OCCCCc1ccccc1 [4-phenyl-1-butanol] + O
5 | 7.92e-10 | OCCc1ccccc1 [2-phenylethanol] + O
